In US7557110B2, “Pyrazolo[1,5-A] pyrimidine derivatives” (Teijin Pharma Limited, priority 2003, dated 2009):

Assays:
MAPKAP-K2 = MAPKAP-K2 (Homo sapiens, UniProt P49137); test: MAPKAP-K2 enzyme activity inhibition (33P-ATP filter plate kinase assay); type: biochemical; conditions: MAPKAP-K2 inhibitory activity; assays conducted at typically 1-100 μM; note: key: +: active; ++: more active; +++: very active
Experimental: [General Procedure for Measurement of MAPKAP-K2 Enzyme Activity Inhibition]
After conducting the reaction for 30 minutes at room temperature, an equivalent volume of a 200 mM phosphoric acid solution was added to suspend the reaction, and 90 μL of the reaction product was adsorbed onto a MultiScreen PH plate (Millipore) and rinsed with a 100 mM phosphoric acid solution. After drying the plate, 30 μL of MicroScint-O (Packard BioScience) was added, and the cpm was measured with a scintillation counter to determine the inhibiting activity. Substrate peptide is […]

CDK-2 = CDK-2 (Homo sapiens, UniProt P24941); test: CDK-2 enzyme activity inhibition (33P-ATP filter plate kinase assay); type: biochemical; conditions: read-out: CDK-2 inhibition IC50
From the text: [General Procedure for Measurement of CDK-2 Enzyme Activity Inhibition]

Sequence of MAPKAP-K2 (P49137 whole entry): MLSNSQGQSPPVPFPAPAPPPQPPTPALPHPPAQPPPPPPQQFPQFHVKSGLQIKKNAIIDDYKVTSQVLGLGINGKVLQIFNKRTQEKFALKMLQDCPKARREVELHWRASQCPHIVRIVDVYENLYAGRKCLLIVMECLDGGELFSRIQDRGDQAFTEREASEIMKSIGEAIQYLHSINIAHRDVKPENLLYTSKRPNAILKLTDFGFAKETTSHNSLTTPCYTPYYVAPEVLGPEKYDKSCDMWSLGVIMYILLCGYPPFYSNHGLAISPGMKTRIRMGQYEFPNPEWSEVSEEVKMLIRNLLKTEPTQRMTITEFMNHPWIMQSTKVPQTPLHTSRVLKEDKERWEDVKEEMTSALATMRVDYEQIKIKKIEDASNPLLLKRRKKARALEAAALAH

Which “activity (efficacy against MAPKAP-K2)” value (MAPKAP-K2) does the source give for COc1ccccc1-c1ccc(Nc2c(C)c(N[C@H]3CC[C@H](N)CC3)nc3ccnn23)cc1 [Compound 287] here?
Its value is “+++”.

And the IC50 (CDK-2)?
The IC50 was < 100 µM.

With Cc1c(N[C@H]2CC[C@H](N)CC2)nc2ccnn2c1Nc1ccc(-c2cccc(N)c2)cc1 [Compound 288] as the compound, how does the “activity (efficacy against MAPKAP-K2)” value (MAPKAP-K2) read?
Its value is “+++”.

What about the IC50 (CDK-2) of the same compound?
Its IC50 is < 100 µM.

With Cc1c(N[C@H]2CC[C@H](N)CC2)nc2ccnn2c1Nc1ccc(-c2cc3ccccc3s2)cc1 [Compound 289] as the compound, how does the “activity (efficacy against MAPKAP-K2)” value (MAPKAP-K2) read?
Its value is “+++”.

And the IC50 (CDK-2)?
Its IC50 is < 100 µM.

Cc1c(N[C@H]2CC[C@H](N)CC2)nc2ccnn2c1Nc1ccc(-c2cc3ccccc3o2)cc1 [Compound 290] was tested. Which “activity (efficacy against MAPKAP-K2)” value (MAPKAP-K2) did it give?
Its value is “+++”.

What about the IC50 (CDK-2) of the same compound?
Its IC50 is < 100 µM.

Which “activity (efficacy against MAPKAP-K2)” value (MAPKAP-K2) does the source give for Cc1c(N[C@H]2CC[C@H](N)CC2)nc2ccnn2c1Nc1ccc(-c2csc3ccccc23)cc1 [Compound 292] here?
Its value is “++”.

And the IC50 (CDK-2)?
The IC50 was < 100 µM.

How did the “activity (efficacy against MAPKAP-K2)” value (MAPKAP-K2) turn out when N[C@H]1CC[C@H](Nc2cc(NCc3cccc(Cl)c3)n3ncc(I)c3n2)CC1 [Compound 297, {5-[(trans-4-aminocyclohexyl)amino]-3-iodo(pyrazolo[1,5-a]pyrimidin-7-yl)}[(3-chlorophenyl)methyl]amine] was run?
The value was “++”.

What about the IC50 (CDK-2) of the same compound?
The IC50 was < 100 µM.

How did the “activity (efficacy against MAPKAP-K2)” value (MAPKAP-K2) turn out when Cc1c(N[C@H]2CC[C@H](N)CC2)nc2ccnn2c1Nc1ccc(-c2ccncc2)cc1 [Compound 299] was run?
The value was “+++”.

What about the IC50 (CDK-2) of the same compound?
The IC50 was < 100 µM.

Cc1c(N[C@H]2CC[C@H](N)CC2)nc2ccnn2c1Nc1ccc(-c2cccnc2)cc1 [Compound 300] was tested. Which “activity (efficacy against MAPKAP-K2)” value (MAPKAP-K2) did it give?
Its value is “+++”.

And the IC50 (CDK-2)?
The IC50 was < 100 µM.

Which results are given for Cc1c(N[C@H]2CC[C@H](N)CC2)nc2ccnn2c1Nc1ccc(-c2ccc(N)cc2)cc1 [Compound 301]?
activity (efficacy against MAPKAP-K2) (MAPKAP-K2): +++; IC50 (CDK-2): < 100 µM

Cc1c(N[C@H]2CC[C@H](N)CC2)nc2ccnn2c1Nc1ccc(-c2ccc(F)cc2)cc1 [Compound 303] was tested. Which “activity (efficacy against MAPKAP-K2)” value (MAPKAP-K2) did it give?
The value was “+++”.

What about the IC50 (CDK-2) of the same compound?
The IC50 was < 100 µM.

For Cc1c(N[C@H]2CC[C@H](N)CC2)nc2ccnn2c1Nc1ccc(-c2cccc(F)c2)cc1 [Compound 304], which “activity (efficacy against MAPKAP-K2)” value (MAPKAP-K2) is on record?
Its value is “+++”.

What about the IC50 (CDK-2) of the same compound?
The IC50 was < 100 µM.

Which results are given for Cc1c(N[C@H]2CC[C@H](N)CC2)nc2ccnn2c1Nc1ccc(-c2ccccc2F)cc1 [Compound 305]?
activity (efficacy against MAPKAP-K2) (MAPKAP-K2): +++; IC50 (CDK-2): < 100 µM

With Cc1c(N[C@H]2CC[C@H](N)CC2)nc2ccnn2c1Nc1ccc(-c2ccc(O)cc2)cc1 [Compound 306] as the compound, how does the “activity (efficacy against MAPKAP-K2)” value (MAPKAP-K2) read?
The value was “+++”.

And the IC50 (CDK-2)?
The IC50 was < 100 µM.

What does the source list for Cc1c(N[C@H]2CC[C@H](N)CC2)nc2ccnn2c1Nc1ccc(-c2cccc(O)c2)cc1 [Compound 307]?
activity (efficacy against MAPKAP-K2) (MAPKAP-K2): +++; IC50 (CDK-2): < 100 µM

Cc1c(N[C@H]2CC[C@H](N)CC2)nc2ccnn2c1Nc1ccc(-c2ccoc2)cc1 [Compound 309] was tested. Which “activity (efficacy against MAPKAP-K2)” value (MAPKAP-K2) did it give?
The value was “+++”.

And the IC50 (CDK-2)?
The IC50 was < 100 µM.

For Cc1c(N[C@H]2CC[C@H](N)CC2)nc2ccnn2c1Nc1ccc(-c2ccsc2C=O)cc1 [Compound 310], which “activity (efficacy against MAPKAP-K2)” value (MAPKAP-K2) is on record?
The value was “++”.

And the IC50 (CDK-2)?
The IC50 was < 100 µM.

With Cc1c(N[C@H]2CC[C@H](N)CC2)nc2ccnn2c1Nc1ccc(-c2cncnc2)cc1 [Compound 311] as the compound, how does the “activity (efficacy against MAPKAP-K2)” value (MAPKAP-K2) read?
Its value is “+++”.

What about the IC50 (CDK-2) of the same compound?
The IC50 was < 100 µM.

With Cc1c(N[C@H]2CC[C@H](N)CC2)nc2ccnn2c1Nc1ccc(-c2ccc(Cl)cc2)cc1 [Compound 312] as the compound, how does the “activity (efficacy against MAPKAP-K2)” value (MAPKAP-K2) read?
Its value is “+++”.

And the IC50 (CDK-2)?
The IC50 was < 100 µM.

Cc1c(N[C@H]2CC[C@H](N)CC2)nc2ccnn2c1Nc1ccc(-c2ccccc2Cl)cc1 [Compound 313] was tested. Which “activity (efficacy against MAPKAP-K2)” value (MAPKAP-K2) did it give?
Its value is “++”.

And the IC50 (CDK-2)?
The IC50 was < 100 µM.

Which “activity (efficacy against MAPKAP-K2)” value (MAPKAP-K2) does the source give for Cc1c(N[C@H]2CC[C@H](N)CC2)nc2ccnn2c1Nc1ccc(-c2ccc(N(C)C)cc2)cc1 [Compound 314] here?
The value was “+++”.

What about the IC50 (CDK-2) of the same compound?
Its IC50 is < 100 µM.

For Cc1c(N[C@H]2CC[C@H](N)CC2)nc2ccnn2c1Nc1ccc(-c2cccc(N(C)C)c2)cc1 [Compound 315], which “activity (efficacy against MAPKAP-K2)” value (MAPKAP-K2) is on record?
Its value is “+++”.

What about the IC50 (CDK-2) of the same compound?
Its IC50 is < 100 µM.

What does the source list for Cc1c(N[C@H]2CC[C@H](N)CC2)nc2ccnn2c1Nc1ccc(-c2cccc(OC(F)(F)F)c2)cc1 [Compound 316]?
activity (efficacy against MAPKAP-K2) (MAPKAP-K2): +++; IC50 (CDK-2): < 100 µM

With Cc1c(N[C@H]2CC[C@H](N)CC2)nc2ccnn2c1Nc1ccc(-c2ccc(OC(F)(F)F)cc2)cc1 [Compound 317] as the compound, how does the “activity (efficacy against MAPKAP-K2)” value (MAPKAP-K2) read?
The value was “+++”.

And the IC50 (CDK-2)?
Its IC50 is < 100 µM.

Cc1c(N[C@H]2CC[C@H](N)CC2)nc2ccnn2c1Nc1ccc(-c2ccc(C#N)cc2)cc1 [Compound 318] was tested. Which “activity (efficacy against MAPKAP-K2)” value (MAPKAP-K2) did it give?
The value was “+++”.

And the IC50 (CDK-2)?
Its IC50 is < 100 µM.

With Cc1c(N[C@H]2CC[C@H](N)CC2)nc2ccnn2c1Nc1ccc(-c2cccc(C#N)c2)cc1 [Compound 319] as the compound, how does the “activity (efficacy against MAPKAP-K2)” value (MAPKAP-K2) read?
The value was “+++”.

And the IC50 (CDK-2)?
The IC50 was < 100 µM.

Cc1cccc(-c2ccc(Nc3c(C)c(N[C@H]4CC[C@H](N)CC4)nc4ccnn34)cc2)c1 [Compound 320] was tested. Which “activity (efficacy against MAPKAP-K2)” value (MAPKAP-K2) did it give?
The value was “+++”.

What about the IC50 (CDK-2) of the same compound?
The IC50 was < 100 µM.
